Results on 3 substances are retold here after patent US11732264B2, “Compositions and methods for treating COVID-19” (Vast Sea Biotechnology, Inc., priority 2020, dated 2023).

Like-named read-outs stand apart in the source and are kept apart here. d = 2'-deoxy (DNA); r = 2'-OH (RNA)

Common to all, as to type: cell-based
In series [1] the test system is SARS-CoV-2 N-protein. The note with it: HNEpC, qRT-PCR. On the technique in general: Quantitative PCR measures a nucleic acid by following its amplification.
Series [2] concerns SARS-CoV-2 N-protein. The note with it: HSAEC, qRT-PCR.
The test system of series [3] is SARS-CoV-2 N-protein. The conditions noted are these: HBTEC, qRT-PCR.
Setting [4] is: oligos 24-48 hours, lipofectamine or Arginine not stated at the result.
Where [5] appears, read: oligos 24-48 hours, with lipofectamine.

As to “VS_DsiRNA-Cy5: DsiRNA SEQ ID NOs: 23 & 24, target N-protein, Cy5 labeled (chain 1 AAACUAAAAUGUCUGAUAAUGGACC; chain 2 GGUCCAUUAUCAGACAUUUUAGUUUGU; chain 1: sugars from the 5' end r23 d2, backbone not given here; chain 2: chemistry not given here; Cy5 label)”, the “down-regulation of SARS-CoV-2 N-protein expression” value (“down-regulation” for short) in the series on SARS-CoV-2 N-protein [1] (setting [4]) is on record as “about 90 fold”; with SARS-CoV-2 N-protein [2] (setting [5]) it was “about 5 fold”; with SARS-CoV-2 N-protein [3] (setting [5]) it was “about 4 fold”.
With “TGTTAATTGGAACGCCTTGTC (FANA modified, pattern not given here, FITC label) [VS_ASO_1-FANA-FITC]”, the “down-regulation” value in the series with SARS-CoV-2 N-protein [1] (without any reagents) is recorded as “about 350 fold”; with SARS-CoV-2 N-protein [2] (oligo 24-48 hours, without any reagents), “about 6 fold”; in the series on SARS-CoV-2 N-protein [3] (without any reagents), “about 8 fold”.
On to “TGTTAATTGGAACGCCTTGTC (Cy3 label, position not given here) [VS_ASO_2-Cy3]”, for which the “down-regulation” value in the series on SARS-CoV-2 N-protein [1] (setting [4]) is recorded as “about 15 fold”; in the series with SARS-CoV-2 N-protein [2] (setting [5]) it was “about 1.5 fold”; with SARS-CoV-2 N-protein [3] (setting [5]), “about 6 fold”.
